# Results from patent US20240279220A1, “INDOLE COMPOUNDS AND METHODS OF USE” (Genzyme Corporation, priority 2021, published 2024).
# System: NBD1/3D
# Test: Aggregation analysis using differential static light scattering (DSLS), NBD1 thermal stability
# Assay type: binding, Human
# Settings: ΔTagg versus DMSO control; compound at 100 μM
# Summary of the method: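 Purified NBD1 at 0.2 mg/ml in S200 buffer (pH 7.6, 2 mM ATP, 5 mM MgCl2, 1% glycerol) was heated with compound at 1 °C/min to 70 °C. Tagg taken from the light-scattering curve inflection point; ΔTagg = compound Tagg minus mean DMSO control Tagg.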
row,Structure (SMILES),DSLS NBD1/3D Human Stability delta-T (° C.) @ 100 (μM)
1,"COCCOCCOC(C)(c1cccc(CCC(=O)O)c1)c1cnc(-c2cc(Oc3c(F)cc4[nH]ccc4c3C)ccc2F)[nH]1 (stereo not shown) [Example 233, 3-(3-(1-(2-(2-Fluoro-5-((6-fluoro-4-methyl-1H-indol-5-yl)oxy)phenyl)-1H-imidazol-5-yl)-1-(2-(2-methoxyethoxy)ethoxy)ethyl)phenyl)propanoic acid]",B (B: 5-10° C.)
2,"COCCOC(C)(c1cccc(CCC(=O)O)c1)c1cnc(-c2cc(Oc3c(F)c(F)c4[nH]ccc4c3C)ccc2F)[nH]1 (stereo not shown) [Example 234, 3-(3-(1-(2-(5-((6,7-difluoro-4-methyl-1H-indol-5-yl)oxy)-2-fluorophenyl)-1H-imidazol-5-yl)-1-(2-methoxyethoxy)ethyl)phenyl) propanoic acid]",B (B: 5-10° C.)
3,"Cc1c(Oc2ccc(F)c(-c3ncc(C(OCCO)c4cccc(CCC(=O)O)c4)[nH]3)c2)c(F)cc2[nH]ccc12 (stereo not shown) [Example 235, 3-(3-((2-(2-fluoro-5-((6-fluoro-4-methyl-1H-indol-5-yl)oxy)phenyl)-1H-imidazol-5-yl)(2-hydroxyethoxy)methyl)phenyl) propanoic acid]",B (B: 5-10° C.)
4,"COCCOC(c1cccc(CCC(=O)O)c1)c1cnc(-c2cc(Oc3c(F)cc4[nH]ccc4c3C)ccc2F)[nH]1 (stereo not shown) [Example 236, 3-(3-((2-(2-fluoro-5-((6-fluoro-4-methyl-1H-indol-5-yl)oxy)phenyl)-1H-imidazol-5-yl)(2-methoxyethoxy)methyl)phenyl) propanoic acid]",B (B: 5-10° C.)
5,"COC(c1cccc(CCC(=O)O)c1)c1cnc(-c2cc(Oc3c(F)cc4[nH]ccc4c3C)ccc2F)[nH]1 (stereo not shown) [Example 237, 3-(3-((2-(2-fluoro-5-((6-fluoro-4-methyl-1H-indol-5-yl)oxy)phenyl)-1H-imidazol-5-yl)(methoxy)methyl)phenyl) propanoic acid]",B (B: 5-10° C.)
6,"Cc1c(Oc2ccc(F)c(-c3nnc(Cc4cccc(CCC(=O)O)c4)[nH]3)c2)c(F)cc2[nH]ccc12 [Example 238, 3-(3-((5-(2-Fluoro-5-((6-fluoro-4-methyl-1H-indol-5-yl)oxy)phenyl)-4H-1,2,4-triazol-3-yl)methyl)phenyl)propanoic acid]",B (B: 5-10° C.)
7,"O=C(O)CCc1cccc(Cc2nnc(-c3cc(Oc4c(F)cc5[nH]ccc5c4Cl)ccc3F)[nH]2)c1 [Example 239, 3-(3-((5-(5-((4-chloro-6-fluoro-1H-indol-5-yl)oxy)-2-fluorophenyl)-4H-1,2,4-triazol-3-yl)methyl)phenyl) propanoic acid]",C (C: ≤5° C.)
8,"O=C(O)CCc1cccc(Cc2nnc(-c3cc(Oc4c(F)cc5[nH]ccc5c4F)ccc3F)[nH]2)c1 [Example 240, 3-(3-((5-(5-((4,6-difluoro-1H-indol-5-yl)oxy)-2-fluorophenyl)-4H-1,2,4-triazol-3-yl)methyl)phenyl) propanoic acid]",B (B: 5-10° C.)
9,"Cc1c(Oc2ccc(F)c(-c3nc(Cc4cccc(CCC(=O)O)c4)n(C)n3)c2)c(F)cc2[nH]ccc12 [Example 241, 3-(3-((3-(2-Fluoro-5-((6-fluoro-4-methyl-1H-indol-5-yl)oxy)phenyl)-1-methyl-1H-1,2,4-triazol-5-yl)methyl)phenyl)propanoic acid]",B (B: 5-10° C.)
10,"Cc1c(Oc2ccc(F)c(-c3nc(Cc4cccc(CCC(=O)O)c4)nn3C)c2)c(F)cc2[nH]ccc12 [Example 242, 3-(3-((5-(2-Fluoro-5-((6-fluoro-4-methyl-1H-indol-5-yl)oxy)phenyl)-1-methyl-1H-1,2,4-triazol-3-yl)methyl)phenyl)propanoic acid]",B (B: 5-10° C.)
11,"Cc1c(Oc2ccc(F)c(-c3nnc(Cc4cccc5c4CC(C(=O)O)C5)[nH]3)c2)c(F)cc2[nH]ccc12 (stereo not shown) [Example 244, 4-((5-(2-Fluoro-5-((6-fluoro-4-methyl-1H-indol-5-yl)oxy)phenyl)-4H-1,2,4-triazol-3-yl)methyl)-2,3-dihydro-1H-indene-2-carboxylic acid]",C (C: ≤5° C.)
12,"Cc1c(Oc2ccc(F)c(-c3nnc(Cc4ccc5c(c4)CC(C(=O)O)C5)[nH]3)c2)c(F)cc2[nH]ccc12 (stereo not shown) [Example 245, 5-((5-(2-Fluoro-5-((6-fluoro-4-methyl-1H-indol-5-yl)oxy)phenyl)-4H-1,2,4-triazol-3-yl)methyl)-2,3-dihydro-1H-indene-2-carboxylic acid]",C (C: ≤5° C.)
13,"Cc1c(Oc2ccc(F)c(-c3nnc(Cc4ccc5[nH]c(C(=O)O)cc5c4)[nH]3)c2)c(F)cc2[nH]ccc12 [Example 246, 5-((5-(2-fluoro-5-((6-fluoro-4-methyl-1H-indol-5-yl)oxy)phenyl)-4H-1,2,4-triazol-3-yl)methyl)-1H-indole-2-carboxylic acid]",B (B: 5-10° C.)
14,"Cc1c(Oc2ccc(F)c(-c3nnc(Cc4cccc(C5CC(C(=O)O)C5)c4)[nH]3)c2)c(F)cc2[nH]ccc12 (stereo not shown) [Example 247, 3-(3-((5-(2-Fluoro-5-((6-fluoro-4-methyl-1H-indol-5-yl)oxy)phenyl)-4H-1,2,4-triazol-3-yl)methyl)phenyl)cyclobutane-1-carboxylic acid]",B (B: 5-10° C.)
15,"Cc1c(Oc2ccc(F)c(-c3nnc(Cc4cccc(C5(F)CC(C(=O)O)C5)c4)[nH]3)c2)c(F)cc2[nH]ccc12 (stereo not shown) [Example 248, 3-Fluoro-3-(3-((5-(2-fluoro-5-((6-fluoro-4-methyl-1H-indol-5-yl)oxy)phenyl)-4H-1,2,4-triazol-3-yl)methyl)phenyl)cyclobutane-1-carboxylic acid]",C (C: ≤5° C.)
16,"Cc1c(Oc2ccc(F)c(-c3nnc(Cc4cccc(N5CC(C(=O)O)C5)c4)[nH]3)c2)c(F)cc2[nH]ccc12 [Example 249, 1-(3-((5-(2-Fluoro-5-((6-fluoro-4-methyl-1H-indol-5-yl)oxy)phenyl)-4H-1,2,4-triazol-3-yl)methyl)phenyl)azetidine-3-carboxylic acid]",C (C: ≤5° C.)
17,"CC(O)(c1cccc(CCC(=O)O)c1)c1nnc(-c2cc(Oc3c(F)cc4[nH]ccc4c3F)ccc2F)[nH]1 (stereo not shown) [Example 250, 3-(3-(1-(5-(5-((4,6-Difluoro-1H-indol-5-yl)oxy)-2-fluorophenyl)-4H-1,2,4-triazol-3-yl)-1-hydroxyethyl)phenyl)propanoic acid]",B (B: 5-10° C.)
18,"Cc1c(Oc2ccc(F)c(-c3nnc(C(C)(O)c4cccc(CCC(=O)O)c4)[nH]3)c2)c(F)cc2[nH]ccc12 (stereo not shown) [Example 251, 3-(3-(1-(5-(2-fluoro-5-((6-fluoro-4-methyl-1H-indol-5-yl)oxy)phenyl)-4H-1,2,4-triazol-3-yl)-1-hydroxyethyl)phenyl)propanoic acid]",B (B: 5-10° C.)
19,"O=C(O)CCCCC#Cc1ccc(Cc2nnc(-c3cccc(Oc4ccc5[nH]ccc5c4)c3)[nH]2)cc1 [Example 253, 7-(4-((5-(3-((1H-Indol-5-yl)oxy)phenyl)-4H-1,2,4-triazol-3-yl)methyl)phenyl)hept-6-ynoic acid]",C (C: ≤5° C.)
20,"O=C(O)CCCCCCc1ccc(Cc2nnc(-c3cccc(Oc4ccc5[nH]ccc5c4)c3)[nH]2)cc1 [Example 254, 7-(4-((5-(3-((1H-Indol-5-yl)oxy)phenyl)-4H-1,2,4-triazol-3-yl)methyl)phenyl)heptanoic acid]",C (C: ≤5° C.)
21,"O=C(O)CCCCCc1cccc(Cc2nnc(-c3cccc(Oc4ccc5[nH]ccc5c4)c3)[nH]2)c1 [Example 255, 6-(3-((5-(3-((1H-indol-5-yl)oxy)phenyl)-4H-1,2,4-triazol-3-yl)methyl)phenyl)hexanoic acid]",C (C: ≤5° C.)
22,"O=C(O)CCCCCCc1cccc(Cc2nnc(-c3cccc(Oc4ccc5[nH]ccc5c4)c3)[nH]2)c1 [Example 256, 7-(3-((5-(3-((1H-indol-5-yl)oxy)phenyl)-4H-1,2,4-triazol-3-yl)methyl)phenyl)heptanoic acid]",C (C: ≤5° C.)
23,"O=C(O)CCCCc1cccc(Cc2nnc(-c3cccc(Oc4cc5cc[nH]c5cn4)c3)[nH]2)c1 [Example 257, 5-(3-((5-(3-((1H-pyrrolo[2,3-c]pyridin-5-yl)oxy)phenyl)-4H-1,2,4-triazol-3-yl)methyl)phenyl)pentanoic acid]",C (C: ≤5° C.)
24,"O=C(O)CCCCc1cccc(Cc2nnc(-c3cccc(Oc4ccc5[nH]ccc5c4)c3)[nH]2)c1 [Example 258, 5-(3-((5-(3-((1H-indol-5-yl)oxy)phenyl)-4H-1,2,4-triazol-3-yl)methyl)phenyl)pentanoic acid]",C (C: ≤5° C.)
25,"O=C(O)CCCc1cccc(Cc2nnc(-c3cccc(Oc4ccc5[nH]ccc5c4)c3)[nH]2)c1 [Example 259, 4-(3-((5-(3-((1H-Indol-5-yl)oxy)phenyl)-4H-1,2,4-triazol-3-yl)methyl)phenyl)butanoic acid]",B (B: 5-10° C.)
26,"c1cc(CCCCc2nnn[nH]2)cc(Cc2nnc(-c3cccc(Oc4ccc5[nH]ccc5c4)c3)[nH]2)c1 [Example 260, 5-(3-(5-(3-(4-(1H-Tetrazol-5-yl)butyl)benzyl)-4H-1,2,4-triazol-3-yl)phenoxy)-1H-indole]",C (C: ≤5° C.)
27,"O=C(O)CSc1cccc(Cc2nnc(-c3cccc(Oc4c(F)cc5[nH]ccc5c4F)c3)[nH]2)c1 [Example 261, 2-((3-((5-(3-((4,6-Difluoro-1H-indol-5-yl)oxy)phenyl)-4H-1,2,4-triazol-3-yl)methyl)phenyl)thio)acetic acid]",C (C: ≤5° C.)
28,"CC(=O)NCc1c(Oc2cccc(-c3ncc(C(O)c4cccc(CCC(=O)O)c4)[nH]3)c2)ccc2[nH]ccc12 (stereo not shown) [Example 262, 3-(3-((2-(3-((4-(Acetamidomethyl)-1H-indol-5-yl)oxy)phenyl)-1H-imidazol-5-yl)(hydroxy)methyl)phenyl)propanoic acid]",A (A: T ≥ 10° C.)
